Source: patent US20240246940A1, “HETEROARYL DERIVATIVE COMPOUND AND USE THEREOF” (VORONOI INC., priority 2021, published 2024)

Experiments:
[1] = system: SK-BR-3 cells (HER2 overexpressing cell line); assay: SK-BR-3 cell proliferation inhibitory activity (CellTiter-Glo, 120 hours); assay type: cell-based; details: Homo sapiens
Procedure: (§1) To evaluate the cell proliferation inhibitory activity of the compound according to the present invention on HER2 and EGFR kinases, the following method was performed using HER2 overexpressing cell lines (SK-BR-3, BT-474, and N-87) and EGFR expressing cell line (HaCaT).
(§2) McCOY'S 5A supplemented with 10% FBS was used for SK-BR-3 cells, RPMI-1640 medium supplemented with 20% FBS was used for BT-474 cancer cells, and RPMI-1640 medium supplemented with 10% FBS was used for N-87 cancer cells. DMEM supplemented with 10% FBS was used for HaCaT cells.
(§3) For SK-BR-3 cells, 5000 cells were aliquoted into each well of a white clear bottom 96 well plate (Corning) 48 hours before treatment with the compounds of Examples. For BT-474 cells, 5000 cells were aliquoted into each well of a white clear bottom 96 well plate (Corning) 48 hours before treatment with the compounds of Examples. For N-87 cells, 5000 cells were aliquoted into each well of a white clear bottom 96 well plate (Corning) 24 hours before treatment with the compounds of Examples. For HaCaT cells, 3000 cells were aliquoted into each well of a white clear bottom 96 well plate (Corning) 24 hours before treatment with the compounds of Examples. For SK-BR-3 cells and BT-474 cells, the compounds of Examples were diluted in dimethyl sulfoxide (three-fold dilution, a total of 11 concentrations) and injected each in an amount of 1 μl to a final concentration of 0.2 nM to 10 μM. For N-87 cells, the compounds of Examples were diluted in dimethyl sulfoxide (five-fold dilution, a total of 11 concentrations) and injected each in an amount of 0.5 μl to a final concentration of […] to 5 μM. For HaCaT cells, the compounds of Examples were diluted in dimethyl sulfoxide (three-fold dilution, a total of 11 concentrations) and injected each in an amount of 0.5 μl to a final concentration of 0.8 nM to 45 μM. For the measurement of living cells, the cells were stored at room temperature for 10 minutes using CellTiter-Glo cell viability reagent (Promega) after a certain period of time (SK-BR-3: 120 hours, BT-474: 120 hours, N-87: 72 hours, and HaCaT: 72 hours) post treatment with the compounds of Examples, and the luminescence intensity thereof was measured using a reader (SynergyNeo, Biotek). Each test was repeated three times.
(§4) The result values were calculated as a cell growth rate (%) compared to those of the control group. A graph was created using the GraphPad Prism version 5.0 program, and GI50 values were calculated.

[2] = system: HaCaT cells (EGFR expressing cell line); assay: HaCaT cell proliferation inhibitory activity (CellTiter-Glo, 72 hours); assay type: cell-based; details: Homo sapiens
Procedure: as §1, §2, §3, §4

| SMILES | GI50 [1] | GI50 [2] |
| --- | --- | --- |
| C=CC(=O)N1CC(Oc2cc3c(Nc4cc(-c5cccc(C(F)(F)F)c5)ccc4OC)ncnc3cc2OC)C1 [Example 9, 1-(3-((7-methoxy-4-((4-methoxy-3′-(trifluoromethyl)-[1,1′-biphenyl]-3-yl)amino)quinazolin-6-yl)oxy)azetidin-1-yl)prop-2-en-1-one] | 150 to 1000 nM | 150 to 1000 nM |
| C=CC(=O)N1CC(Oc2cc3c(Nc4cc(-c5cc(F)cc(F)c5)ccc4OC)ncnc3cc2OC)C1 [Example 11, 1-(3-((4-((3′,5′-difluoro-4-methoxy-[1,1′-biphenyl]-3-yl)amino)-7-methoxy-quinazolin-6-yl)oxy)azetidin-1-yl)prop-2-en-1-one] | 150 to 1000 nM | ≤ 150 nM |
| C=CC(=O)N1CC(Oc2cc3c(Nc4cc(-c5cccc(Cl)c5F)ccc4OC)ncnc3cc2OC)C1 [Example 20, 1-(3-((4-((3′-chloro-2′-fluoro-4-methoxy-[1,1′-biphenyl]-3-yl)amino)-7-methoxy-quinazolin-6-yl)oxy)azetidin-1-yl)prop-2-en-1-one] | ≤ 150 nM | ≤ 150 nM |
| C=CC(=O)N1CC(Oc2cc3c(Nc4cc(-c5cccc(F)c5C)ccc4OC)ncnc3cc2OC)C1 [Example 23, 1-(3-((4-((3′-fluoro-4-methoxy-2′-methyl-[1,1′-biphenyl]-3-yl)amino)-7-methoxy-quinazolin-6-yl)oxy)azetidin-1-yl)prop-2-en-1-one] | 150 to 1000 nM | ≤ 150 nM |
| C=CC(=O)N1CC(Oc2cc3c(Nc4cc(-c5ccc(F)cc5C)ccc4OC)ncnc3cc2OC)C1 [Example 25, 1-(3-((4-((4'-fluoro-4-methoxy-2′-methyl-[1,1′-biphenyl]-3-yl)amino)-7-methoxy-quinazolin-6-yl)oxy)azetidin-1-yl)prop-2-en-1-one] | ≤ 150 nM | ≤ 150 nM |
| C=CC(=O)N1CC(Oc2cc3c(Nc4cc(-c5ccc(C#N)cc5)ccc4OC)ncnc3cc2OC)C1 [Example 26, 3′-((6-((1-acryloylazetidin-3-yl)oxy)-7-methoxy-quinazolin-4-yl)amino)-4′-methoxy-[1,1′-biphenyl]-4-carbonitrile] | ≤ 150 nM | ≤ 150 nM |
| C=CC(=O)N1CC(Oc2cc3c(Nc4cc(-c5cnc(Cl)c(F)c5)ccc4OC)ncnc3cc2OC)C1 [Example 27, 1-(3-((4-((5-(6-chloro-5-fluoropyridin-3-yl)-2-methoxyphenyl)amino)-7-methoxy-quinazolin-6-yl)oxy)azetidin-1-yl)prop-2-en-1-one] | 150 to 1000 nM | 150 to 1000 nM |
| C=CC(=O)N1CC(Oc2cc3c(Nc4cc(-c5ccc(Cl)c(F)c5)ccc4OC)ncnc3cc2OC)C1 [Example 28, 1-(3-((4-((4′-chloro-3′-fluoro-4-methoxy-[1,1′-biphenyl]-3-yl)amino)-7-methoxy-quinazolin-6-yl)oxy)azetidin-1-yl)prop-2-en-1-one] | 150 to 1000 nM | 150 to 1000 nM |
| C=CC(=O)N1CCC(Oc2cc3c(Nc4cc(-c5ccccc5)ccc4OC)ncnc3cc2OC)C1 (centres unmarked) [Example 58, 1-(3-((7-methoxy-4-((4-methoxy-[1,1′-biphenyl]-3-yl)amino)quinazolin-6-yl)oxy)pyrrolidin-1-yl)prop-2-en-1-one] | 150 to 1000 nM |  |
| C=CC(=O)N1CCC(Oc2cc3c(Nc4cc(-c5cccs5)ccc4OC)ncnc3cc2OC)C1 (centres unmarked) [Example 63, 1-(3-((7-methoxy-4-((2-methoxy-5-(thiophen-2-yl)phenyl)amino)quinazolin-6-yl)oxy)pyrrolidin-1-yl)prop-2-en-1-one] | 150 to 1000 nM |  |
| C=CC(=O)N1CCC(Oc2cc3c(Nc4cc(-c5ccoc5)ccc4OC)ncnc3cc2OC)C1 (centres unmarked) [Example 64, 1-(3-((4-((5-(furan-3-yl)-2-methoxyphenyl)amino)-7-methoxy-quinazolin-6-yl)oxy)pyrrolidin-1-yl)prop-2-en-1-one] | 150 to 1000 nM |  |
| C=CC(=O)N1CCC(Oc2cc3c(Nc4cc(-c5ccccc5)ccc4OC)ncnc3cc2OC)CC1 [Example 65, 1-(4-((7-methoxy-4-((4-methoxy-[1,1′-biphenyl]-3-yl)amino)quinazolin-6-yl)oxy)piperidin-1-yl)prop-2-en-1-one] | ≤ 150 nM |  |
| C=CC(=O)N1CCC(Oc2cc3c(Nc4cc(-c5ccn6ncnc6c5)ccc4OC)ncnc3cc2OC)CC1 [Example 69, 1-(4-((4-((5-([1,2,4]triazolo[1,5-a]pyridin-7-yl)-2-methoxyphenyl)amino)-7-methoxy-quinazolin-6-yl)oxy)piperidin-1-yl)prop-2-en-1-one] | 150 to 1000 nM |  |
| C=CC(=O)N1CCC(Oc2cc3c(Nc4cc(-c5ccoc5)ccc4OC)ncnc3cc2OC)CC1 [Example 81, 1-(4-((4-((5-(furan-3-yl)-2-methoxyphenyl)amino)-7-methoxy-quinazolin-6-yl)oxy)piperidin-1-yl)prop-2-en-1-one] | 150 to 1000 nM |  |
| COc1ccc(-c2ccco2)cc1Nc1ncnc2cc(OC)c(OC3CCN(C(=O)/C=C/CN(C)C)CC3)cc12 [Example 120, (E)-4-(dimethylamino) 1-(4-((4-((5-(furan-2-yl)-2-methoxyphenyl)amino)-7-methoxy-quinazolin-6-yl)oxy)piperidin-1-yl)but-2-en-1-one] | 150 to 1000 nM |  |

Second part, led by results:

| GI50 [1] | SMILES | GI50 [2] |
| --- | --- | --- |
| ≤ 150 nM | C=CC(=O)N1CC[C@@H](Oc2cc3c(Nc4cc(-c5ccco5)ccc4OC)ncnc3cc2OC)[C@H](F)C1 (relative stereo) [Example 179, 1-(trans-3-fluoro-4-((4-((5-(furan-2-yl)-2-methoxyphenyl)amino)-7-methoxy-quinazolin-6-yl)oxy)piperidin-1-yl)prop-2-en-1-one] | ≤ 150 nM |
| ≤ 150 nM | C=CC(=O)N1CC(Oc2cc3c(Nc4cc(-c5cccc(F)c5)ccc4OC)ncnc3cc2OC)C1 [Example 8, 1-(3-((4-((3′-fluoro-4-methoxy-[1,1′-biphenyl]-3-yl)amino)-7-methoxy-quinazolin-6-yl)oxy)azetidin-1-yl)prop-2-en-1-one] | ≤ 150 nM |
| ≤ 150 nM | C=CC(=O)N1CC(Oc2cc3c(Nc4cc(-c5cc(F)ccc5F)ccc4OC)ncnc3cc2OC)C1 [Example 10, 1-(3-((4-((2′,5′-difluoro-4-methoxy-[1,1′-biphenyl]-3-yl)amino)-7-methoxy-quinazolin-6-yl)oxy)azetidin-1-yl)prop-2-en-1-one] | ≤ 150 nM |
| ≤ 150 nM | C=CC(=O)N1CC(Oc2cc3c(Nc4cc(-c5cccc(C#N)c5)ccc4OC)ncnc3cc2OC)C1 [Example 12, 3′-((6-((1-acryloylazetidin-3-yl)oxy)-7-methoxy-quinazolin-4-yl)amino)-4′-methoxy-[1,1′-biphenyl]-3-carbonitrile] | ≤ 150 nM |
| ≤ 150 nM | C=CC(=O)N1CC(Oc2cc3c(Nc4cc(-c5ccc(F)cc5F)ccc4OC)ncnc3cc2OC)C1 [Example 13, 1-(3-((4-((2′,4′-difluoro-4-methoxy-[1,1′-biphenyl]-3-yl)amino)-7-methoxy-quinazolin-6-yl)oxy)azetidin-1-yl)prop-2-en-1-one] | ≤ 150 nM |
| ≤ 150 nM | C=CC(=O)N1CC(Oc2cc3c(Nc4cc(-c5ccc(F)c(C#N)c5)ccc4OC)ncnc3cc2OC)C1 [Example 14, 3′-((6-((1-acryloylazetidin-3-yl)oxy)-7-methoxy-quinazolin-4-yl)amino)-4-fluoro-4′-methoxy-[1,1′-biphenyl]-3-carbonitrile] | ≤ 150 nM |
| ≤ 150 nM | C=CC(=O)N1CC(Oc2cc3c(Nc4cc(-c5ccc(Cl)cc5F)ccc4OC)ncnc3cc2OC)C1 [Example 15, 1-(3-((4-((4′-chloro-2′-fluoro-4-methoxy-[1,1′-biphenyl]-3-yl)amino)-7-methoxy-quinazolin-6-yl)oxy)azetidin-1-yl)prop-2-en-1-one] | ≤ 150 nM |
| ≤ 150 nM | C=CC(=O)N1CC(Oc2cc3c(Nc4cc(-c5cccc(F)c5Cl)ccc4OC)ncnc3cc2OC)C1 [Example 18, 1-(3-((4-((2′-chloro-3′-fluoro-4-methoxy-[1,1′-biphenyl]-3-yl)amino)-7-methoxy-quinazolin-6-yl)oxy)azetidin-1-yl)prop-2-en-1-one] | ≤ 150 nM |
| ≤ 150 nM | C=CC(=O)N1CC(Oc2cc3c(Nc4cc(-c5cccc(F)c5F)ccc4OC)ncnc3cc2OC)C1 [Example 19, 1-(3-((4-((2′,3′-difluoro-4-methoxy-[1,1′-biphenyl]-3-yl)amino)-7-methoxy-quinazolin-6-yl)oxy)azetidin-1-yl) prop-2-en-1-one] | ≤ 150 nM |
